From PubChem BioAssay AID248 (DTP/NCI, 2004)
“And” between values parts separate entries of the source, which are not always exact repeats. Equal entries are not always repeated. Toxic doses and inconclusive results are not listed. Cut-off read from the data, not from the text of the source: active = T/C of 150% or more; inactive = T/C below 125%.

Test system: L1210 leukemia ip in BDF1 mice, survival T/C
Experiment: NCI In Vivo Anticancer Drug Screen. Data for tumor model L1210 Leukemia (intraperitoneal) in B6D2F1 (BDF1) mice
Details: endpoint: mean survival time, higher = longer survival
Outline: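 Survival endpoint. Drug-treated group vs vehicle group, expressed as T divided by C. Tumor passaged by transplantation.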

[1] = dose: 100.0 mg/kg/injection, schedule: Q01DX009 (ip), vehicle: Klucel (hydroxypropylcellulose) (HPC)
[2] = dose: 200.0 mg/kg/injection, schedule: Q01DX009 (ip), vehicle: Klucel (hydroxypropylcellulose) (HPC)
[3] = dose: 400.0 mg/kg/injection, schedule: Q01DX009 (ip), vehicle: Klucel (hydroxypropylcellulose) (HPC)
[4] = dose: 25.0 mg/kg/injection, schedule: Q01DX009 (ip), vehicle: Klucel (hydroxypropylcellulose) (HPC)
[5] = dose: 50.0 mg/kg/injection, schedule: Q01DX009 (ip), vehicle: Klucel (hydroxypropylcellulose) (HPC)

Measured: T/C

COc1ccc(/C=N/NC(=O)c2ccccc2)c(OC)c1
inactive: [1] 100 % of control | [2] 100 % of control | [3] 103 % of control

CCCCCCCCCCCCCCCCCCNC(=O)Nc1c(C)cc(C)cc1C
inactive: dose: 100.0 mg/kg/injection, schedule: Q01DX009 (ip), vehicle: gum acacia 94 % of control | dose: 100.0 mg/kg/injection, schedule: Q04DX003 (ip), vehicle: gum acacia 90 % of control | dose: 200.0 mg/kg/injection, schedule: Q01DX009 (ip), vehicle: gum acacia 87 % of control | dose: 200.0 mg/kg/injection, schedule: Q04DX003 (ip), vehicle: gum acacia 93 % of control | dose: 400.0 mg/kg/injection, schedule: Q01DX009 (ip), vehicle: gum acacia 94 % of control | dose: 400.0 mg/kg/injection, schedule: Q04DX003 (ip), vehicle: gum acacia 87 % of control

Cc1noc2ncnc(N)c12
inactive: [4] 102 % of control | [5] 102 % of control | [1] 95 % of control

Cc1cccc(C)c1NC(=S)NC1CC(C)CC(C)(C)C1 (stereo not drawn)
inactive: dose: 12.5 mg/kg/injection, schedule: Q01DX009 (ip), vehicle: Klucel (hydroxypropylcellulose) (HPC) 100 % of control | [4] 109 % of control | [5] 96 % of control

O=C1NC(=S)S/C1=C\c1ccc([N+](=O)[O-])cc1
inactive: dose: 100.0 mg/kg/injection, schedule: Q01DX001 (ip), vehicle: saline 90 % of control

CC(=O)Oc1cc(O)c2c(c1)OC(C)(C)CC2=O
inactive: [1] 98 % of control | dose: 100.0 mg/kg/injection, schedule: Q04DX003 (ip), vehicle: Klucel (hydroxypropylcellulose) (HPC) 93 % of control | [2] 98 % of control | dose: 200.0 mg/kg/injection, schedule: Q04DX003 (ip), vehicle: Klucel (hydroxypropylcellulose) (HPC) 100 % of control | [3] 96 % of control | dose: 400.0 mg/kg/injection, schedule: Q04DX003 (ip), vehicle: Klucel (hydroxypropylcellulose) (HPC) 97 % of control

COc1cc2c(cc1OC)C1(NCC2)C(=O)Nc2c(C)cc(Cl)cc21 (stereo not drawn)
inactive: dose: 25.0 mg/kg/injection, schedule: Q04DX002 (ip), vehicle: saline 103 % of control | dose: 50.0 mg/kg/injection, schedule: Q04DX002 (ip), vehicle: saline 92 % of control | dose: 100.0 mg/kg/injection, schedule: Q04DX002 (ip), vehicle: saline 95 % of control and 100 % of control | dose: 200.0 mg/kg/injection, schedule: Q04DX002 (ip), vehicle: saline 92 % of control | dose: 400.0 mg/kg/injection, schedule: Q04DX002 (ip), vehicle: saline 90 % of control

CCOC(=O)C1C(O)=C(c2ccccc2)P(=O)(Cc2ccccc2)C1(C)C (stereo not drawn)
inactive: dose: 100.0 mg/kg/injection, schedule: Q04DX003 (ip), vehicle: saline with Tween-80 94 % of control | dose: 200.0 mg/kg/injection, schedule: Q04DX003 (ip), vehicle: saline with Tween-80 94 % of control | dose: 400.0 mg/kg/injection, schedule: Q04DX003 (ip), vehicle: saline with Tween-80 91 % of control

O=C(O)C1C(c2ccccc2)=C(c2ccccc2)C(c2ccccc2)=C(c2ccccc2)C1C(=O)O (stereo not drawn)
inactive: dose: 50.0 mg/kg/injection, schedule: Q01DX001 (ip), vehicle: carboxymethylcellulose (CMC) 89 % of control | dose: 100.0 mg/kg/injection, schedule: Q01DX001 (ip), vehicle: carboxymethylcellulose (CMC) 92 % of control

CC1=CC=C(C(=O)O)C1
inactive: [1] 90 % of control | [2] 100 % of control | [3] 92 % of control

Cn1c(N)c(C=O)c(=O)n(C)c1=O
inactive: dose: 12.5 mg/kg/injection, schedule: Q04DX003 (ip), vehicle: Klucel (hydroxypropylcellulose) (HPC) 95 % of control | dose: 25.0 mg/kg/injection, schedule: Q04DX003 (ip), vehicle: Klucel (hydroxypropylcellulose) (HPC) 105 % of control | dose: 50.0 mg/kg/injection, schedule: Q04DX003 (ip), vehicle: Klucel (hydroxypropylcellulose) (HPC) 96 % of control
